Laboratory results as given in PubChem BioAssay (NCI).
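Compound exposure: 48 hours, 5 concentrations, 96-well plates. At the TGI there is no net growth.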

Experiments:
Experiment in all cases: NCI tumour cell line growth inhibition, 48 h
EKVX NSCLC = tested on: EKVX NSCLC
HOP-92 NSCLC = tested on: HOP-92 NSCLC
HT29 colon = tested on: HT29 colon
IGROV1 ovarian = tested on: IGROV1 ovarian
M14 melanoma = tested on: M14 melanoma
MDA-MB-435 = tested on: MDA-MB-435
NCI-H226 lung = tested on: NCI-H226 lung
NCI-H23 lung = tested on: NCI-H23 lung
NCI/ADR-RES ovarian = tested on: NCI/ADR-RES ovarian
T-47D breast = tested on: T-47D breast

Compound	TGI (EKVX NSCLC) [µM]	TGI (HOP-92 NSCLC) [µM]	TGI (HT29 colon) [µM]	TGI (IGROV1 ovarian) [µM]	TGI (M14 melanoma) [µM]	TGI (MDA-MB-435) [µM]	TGI (NCI-H226 lung) [µM]	TGI (NCI-H23 lung) [µM]	TGI (NCI/ADR-RES ovarian) [µM]	TGI (T-47D breast) [µM]
Cc1cc2nc3c(C(O)CO)nn(-c4ccccc4)c3nc2cc1C (stereo not given)	63.4	45.4	46.5	43.9	> 100	47.9	98.2	54.7	44.7	91.5
CC1C=C(NCC2(CO)CCC2)NC(N)=N1 (stereo not given)	> 100	> 100	> 100	> 100	> 100	> 100	> 100	> 100	> 100	> 100
CCOC(=O)c1cc2cc(CSc3ccccc3)ccc2oc1=O	> 100	> 100	> 100	> 100	> 100	> 100	> 100	> 100	> 100	> 100
